What was measured:
Assay type in all cases: binding
VBC = biological target: T1, VBC (Homo sapiens, UniProt P40337); experiment: ITC of PROTACs, binary complex PROTAC–VBC; conditions: for ΔG / ΔH / –TΔS / Kd: PROTAC in cell, VBC in syringe; for Kd: mean ± SEM
T1 construct: VHL (54–213), ElonginC (17–112) and; His6 (N, cleaved yes); made in house; host or cells: Escherichia coli BL21(DE3)
Source text: (§1) structure (C2 R, C3 S, C4 R) assumed on the basis of unchanging stereogenic centres in the synthesis.
(§2) Final R(F) = 0.033, wR(F 2) = 0.085 for 275 parameters and 3901 reflections with I > 2σ(I) (corresponding R-values based on all 4067 reflections = 0.035 and 0.086, respectively), CCDC […]
(§3) Protein expression and purification.
(§4) Wild-type versions of human proteins VHL (UniProt accession number: P40337), ElonginC […]
(§5) expression. For expression of VBC, N-terminally His6-tagged VHL (54–213), ElonginC (17–112) and ElonginB (1–104) were co- expressed in Escherichia coli BL21(DE3) at 24 °C for 16 h using 0.3 mM isopropyl β-D -1-thiogalactopyranoside (IPTG). E. coli cells were lysed using a pressure cell homogenizer (Stansted Fluid Power) and lysate clarified by centrifugation. His6-tagged VCB was purified on a HisTrap FF affinity column (GE Healthcare) by elution with an imidazole gradient. The His6tag was removed using TEV protease and the untagged complex dialyzed into low -concentration imidazole buffer. VCB was then flowed through the HisTrap FF column a second time, allowing impurities to bind, as the complex eluted without binding. VCB was then additionally purified by anion exchange and size-exclusion chromatography using ResourceQ and Superdex-75 columns (GE Healthcare), respectively. The final purified complex was stored in 20 mM Bis–Tris, pH 7, 150 mM sodium chloride and 1 mM dithiothreitol (DTT). Brd2BD1 (71–194), and Brd4BD2 (333–460) were expressed with an N-terminal His6 tag in E. coli BL21(DE3) at 18 °C for 20 h using 0.2 mM IPTG.
(§6) His6-tagged BDs were purified on nickel Sepharose 6 fast flow beads (GE Healthcare) by elution with increasing concentrations of imidazole. For crystallography the His6-tagged BD was cleaved with TEV protease and dialyzed into low-concentration imidazole buffer. The BD was then flowed over the nickel beads a second time to remove impurities and protease. BDs were then additionally purified by size-exclusion chromatography using a Superdex-75 column. The BDs were purified by size-exclusion chromatography using a Superdex-75 column. The final purified proteins were stored in 20 mM 4-(2-hydroxyethyl)-1-piperazineethanesulfonic acid (HEPES), pH 7.5, 150 mM sodium chloride and 1 mM DTT. All chromatography purification steps were performed using Äkta FPLC purification systems (GE Healthcare) or glass econo-columns (Bio-Rad) at room temperature.
(§7) Isothermal titration calorimetry (ITC) of peptides and ligands
(§8) Titrations were performed on an ITC200 micro-calorimeter (GE Healthcare). The peptides were dissolved in buffer (20 mM Bis–Tris propane, 100 mM NaCl, 1 mM tris(2-carboxyethyl)phosphine […]
(§9) (TCEP), pH 7.4) at 100 µM. The compounds were titrated against 10 µM VBC complex, equilibrated in the same buffer. The titrations consisted of 20 injections of 2 µL of peptide solution at a rate of 0.5 µL/s at 120 s time intervals. An initial injection of ligand (0.4 µL) was made and discarded during data analysis. All experiments were performed at 25°C while stirring at 650 rpm.
(§10) Ligands 14a- b were diluted from DMSO stock solution to 300 µM in buffer (20 mM Bis-Tris propane, 150 mM NaCl, 1 mM TCEP, pH 7.4). The compounds were titrated against 30 µM VBC complex, equilibrated in the same buffer. The final concentration of DMSO in each experiment was […]
(§11) The data were fitted to a single-binding-site model using the MicroCal PEAQ-ITC analysis software provided by the manufacturer to obtain the stoichiometry n, the dissociation constant K d, and the enthalpy of binding ΔH . The reported values are the mean ± s.e.m. from independent measurements.
(§12) Isothermal titration calorimetry (ITC)of PROTACs
(§13) The titrations were all performed as reverse mode (protein in syringe, ligand in cell) and consisted of 19 injections of 2 µl protein solution (20 mM Bis–Tris propane, 100 mM NaCl, 1 mM tris(2-carboxyethyl)phosphine (TCEP), pH 7.4) at a rate of 0.5 µl/s at 120 s time intervals. An initial injection (0.4 µl) was made and discarded during data analysis. […]

VBC and Brd2BD1 = biological target: T2, VBC and Brd2BD1 (Homo sapiens, UniProt P25440+P40337); experiment: ITC ternary complex formation, VBC titrated into PROTAC:Brd2BD1; conditions: for α (cooperativity): Kd binary,VBC/Kd ternary; for α (cooperativity) / ΔΔG: Brd2BD1; for Kd / ΔG / ΔH / –TΔS: PROTAC:Brd2BD1 in cell, VBC in syringe; for ΔΔG: ternary vs binary
T2 construct: VHL (54–213), ElonginC (17–112) and; Brd2BD1 (71–194),; His6 (N, cleaved yes); made in house; host or cells: E. coli BL21(DE3)
Source text: as §1, §2, §3, §4, §5, §6, §7, §8, §9, §10, §11, §12, §13

VBC and Brd4BD2 = biological target: T3, VBC and Brd4BD2 (Homo sapiens, UniProt O60885+P40337); experiment: ITC ternary complex formation, VBC titrated into PROTAC:Brd4BD2; conditions: for α (cooperativity): Kd binary,VBC/Kd ternary; for α (cooperativity) / ΔΔG: Brd4BD2; for Kd / ΔG / ΔH / –TΔS: PROTAC:Brd4BD2 in cell, VBC in syringe; for ΔΔG: ternary vs binary
T3 construct: VHL (54–213), ElonginC (17–112) and; Brd4BD2 (333–460); His6 (N, cleaved yes); made in house; host or cells: E. coli BL21(DE3)
Source text: as §1, §2, §3, §4, §5, §6, §7, §8, §9, §10, §11, §12, §13

Row | SMILES | ΔG (VBC) [kcal/mol] | ΔH (VBC) [kcal/mol] | –TΔS (VBC) [kcal/mol] | Kd (VBC) [nM] | α (cooperativity) (VBC and Brd2BD1) | Kd (VBC and Brd2BD1) [nM] | ΔG (VBC and Brd2BD1) [kcal/mol] | ΔH (VBC and Brd2BD1) [kcal/mol] | –TΔS (VBC and Brd2BD1) [kcal/mol] | ΔΔG (VBC and Brd2BD1) [kcal/mol] | α (cooperativity) (VBC and Brd4BD2) | Kd (VBC and Brd4BD2) [nM] | ΔG (VBC and Brd4BD2) [kcal/mol] | ΔH (VBC and Brd4BD2) [kcal/mol] | –TΔS (VBC and Brd4BD2) [kcal/mol] | ΔΔG (VBC and Brd4BD2) [kcal/mol] | fold weaker ligand for VBC (VBC; 15b compared to 15a) [fold]
1 | Cc1ncsc1-c1ccc(CNC(=O)[C@@H]2[C@@H](F)[C@@H](O)CN2C(=O)[C@@H](NC(=O)COCCOCCOCCNC(=O)C[C@@H]2N=C(c3ccc(Cl)cc3)c3c(sc(C)c3C)-n3c(C)nnc32)C(C)(C)C)cc1 [15a] | -9.01 ± 0.02 | -7.9 ± 0.3 | -1.1 ± 0.2 | 249 ± 6 | 3.9 | 64 ± 3 | -9.85 ± 0.05 | -9.17 | -0.6 ± 0.6 | -0.85 | 9.5 | 26 ± 5 | -10.13 | -10.9 ± 0.7 | -0.6 ± 0.4 | -1.12 | –
2 | Cc1ncsc1-c1ccc(CNC(=O)[C@@H]2[C@H](F)[C@@H](O)CN2C(=O)[C@@H](NC(=O)COCCOCCOCCNC(=O)C[C@@H]2N=C(c3ccc(Cl)cc3)c3c(sc(C)c3C)-n3c(C)nnc32)C(C)(C)C)cc1 [15b] | -8.49 ± 0.07 | -5.0 ± 0.2 | -3.7 ± 0.2 | 603 ± 74 | 1.2 | 500 ± 96 | -8.6 ± 0.1 | -5.1 ± 0.2 | -3.6 ± 0.3 | -0.1 ± 0.1 | 14.5 | 42 ± 6 | -10.01 | -7.75 | -2.34 | -1.6 ± 0.1 | 2.5

Reference: PMC6430500, “3-Fluoro-4-hydroxyprolines: Synthesis, Conformational Analysis, and Stereoselective Recognition by the VHL E3 Ubiquitin Ligase for Targeted Protein Degradation” (Journal of the American Chemical Society, 2018)
